PubChem BioAssay AID330 (DTP/NCI, 2004)
Several values for one entry are separate records, joined by “and”; a condition that tells them apart may be missing. Equal entries are not always repeated. Inconclusive results and toxic doses are left out.

Test system: P388 leukemia ip, CD2F1 mice, survival T/C
Assay: NCI In Vivo Anticancer Drug Screen. Data for tumor model P388 Leukemia (intraperitoneal) in CD2F1 (CDF1) mice
Conditions: endpoint: median survival time, higher = longer survival
How it was run: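 Mice carrying the transplanted tumor received test compound or vehicle. Survival was recorded in each group, and the value is the treated-group measurement divided by that of the vehicle-treated control group.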

[1] = dose: 50.0 mg/kg/injection, schedule: Q01DX005 (ip), vehicle: Klucel (hydroxypropylcellulose) (HPC)
[2] = dose: 100.0 mg/kg/injection, schedule: Q01DX005 (ip), vehicle: Klucel (hydroxypropylcellulose) (HPC)
[3] = dose: 200.0 mg/kg/injection, schedule: Q01DX005 (ip), vehicle: Klucel (hydroxypropylcellulose) (HPC)
[4] = dose: 50.0 mg/kg/injection, schedule: Q01DX005 (ip), vehicle: saline with Tween-80
[5] = dose: 50.0 mg/kg/injection, schedule: Q01DX009 (ip), vehicle: Klucel (hydroxypropylcellulose) (HPC)
[6] = dose: 100.0 mg/kg/injection, schedule: Q01DX009 (ip), vehicle: Klucel (hydroxypropylcellulose) (HPC)
[7] = dose: 100.0 mg/kg/injection, schedule: Q01DX009 (ip), vehicle: saline with Tween-80
[8] = dose: 100.0 mg/kg/injection, schedule: Q04DX003 (ip), vehicle: saline with Tween-80
[9] = dose: 200.0 mg/kg/injection, schedule: Q01DX009 (ip), vehicle: saline with Tween-80
[10] = dose: 200.0 mg/kg/injection, schedule: Q04DX003 (ip), vehicle: saline with Tween-80
[11] = dose: 400.0 mg/kg/injection, schedule: Q04DX003 (ip), vehicle: saline with Tween-80
[12] = dose: 25.0 mg/kg/injection, schedule: Q04DX003 (ip), vehicle: saline with Tween-80
[13] = dose: 50.0 mg/kg/injection, schedule: Q04DX003 (ip), vehicle: saline with Tween-80
[14] = dose: 100.0 mg/kg/injection, schedule: Q01DX005 (ip), vehicle: saline with Tween-80
[15] = dose: 200.0 mg/kg/injection, schedule: Q01DX005 (ip), vehicle: saline with Tween-80
[16] = dose: 50.0 mg/kg/injection, schedule: Q01DX009 (ip), vehicle: saline with Tween-80

`CC(=O)OCCn1c([N+](=O)[O-])cnc1/C=[N+](/C)[O-]` was tested, and the T/C (dose: 50.0 mg/kg/injection, schedule: Q01DX009 (ip), vehicle: saline) was 101 % of control, the T/C (dose: 100.0 mg/kg/injection, schedule: Q01DX009 (ip), vehicle: saline) was 102 % of control and the T/C (dose: 200.0 mg/kg/injection, schedule: Q01DX009 (ip), vehicle: saline) was 103 % of control.
In the case of `O=C1CCC(=O)N1CCCCCCN1C(=O)CCC1=O`, the T/C [1] is reported as 90 % of control, the T/C [2] is reported as 99 % of control and the T/C [3] is reported as 98 % of control. The T/C (dose: 400.0 mg/kg/injection, schedule: Q01DX005 (ip), vehicle: Klucel (hydroxypropylcellulose) (HPC)) was 89 % of control.
With `CCCCCN(CCCCC)CCCNc1c2c(nc3ccc(Cl)cc13)CCCC2` the T/C (dose: 12.5 mg/kg/injection, schedule: Q01DX005 (ip), vehicle: saline) was 95 % of control, the T/C (dose: 25.0 mg/kg/injection, schedule: Q01DX005 (ip), vehicle: saline) was 104 % of control and the T/C (dose: 50.0 mg/kg/injection, schedule: Q01DX005 (ip), vehicle: saline) was 104 % of control and 107 % of control.
With `S=c1n(-c2ccc(Cl)cc2)c2nc3ccccc3nc(/c2=N\Nc2ccc(Br)cc2)n1-c1ccccn1` the T/C [4] was 101 % of control.
With `C[N+]12CCO[B-]1(c1ccccc1)OCC2` (stereo not given) the T/C (dose: 60.0 mg/kg/injection, schedule: Q01DX005 (ip), vehicle: saline) was 108 % of control, the T/C (dose: 120.0 mg/kg/injection, schedule: Q01DX005 (ip), vehicle: saline) was 100 % of control and the T/C (dose: 240.0 mg/kg/injection, schedule: Q01DX005 (ip), vehicle: saline) was 100 % of control.
With `COC(=O)C1=C(C(=O)OC)P2(C)(C)ON(c3ccccc3)C(C(=O)c3ccccc3)N2C1(c1ccccc1)c1ccccc1` (stereo not given) the T/C [1] was 100 % of control, the T/C [2] was 93 % of control and the T/C [3] was 98 % of control.
`CCc1cccc(NC(=O)NNC(=O)c2ccncc2)c1` was tested, and the T/C [5] was 96 % of control and the T/C [6] was 100 % of control.
`CC1CC(C)(C)N=C(CCC2CCCC2=O)O1` (stereo not given) was tested, and the T/C [7] was 91 % of control, the T/C [8] was 95 % of control and the T/C [9] was 100 % of control. The T/C [10] was 100 % of control, the T/C (dose: 400.0 mg/kg/injection, schedule: Q01DX009 (ip), vehicle: saline with Tween-80) was 104 % of control and the T/C [11] was 104 % of control.
In the case of `CN(C)CC1CCC2=C(C1=O)C(c1ccc(Cl)c(Cl)c1)C1=C(CCC(CN(C)C)C1=O)O2` (stereo not given), the T/C (dose: 60.0 mg/kg/injection, schedule: Q01DX005 (ip), vehicle: suspension in saline) is reported as 100 % of control, the T/C (dose: 120.0 mg/kg/injection, schedule: Q01DX005 (ip), vehicle: suspension in saline) is reported as 106 % of control and the T/C (dose: 240.0 mg/kg/injection, schedule: Q01DX005 (ip), vehicle: suspension in saline) is reported as 99 % of control.
`CC(CC(=O)c1ccccc1)=NCC(O)CN=C(C)CC(=O)c1ccccc1.[Cu]` (stereo not given) was tested, and the T/C (dose: 12.5 mg/kg/injection, schedule: Q04DX003 (ip), vehicle: saline with Tween-80) was 96 % of control, the T/C [12] was 93 % of control and the T/C [13] was 96 % of control. The T/C [8] was 94 % of control and 98 % of control, the T/C [10] was 101 % of control and 92 % of control and the T/C [11] was 96 % of control.
With `CCCN1C=C(C(=O)OCC)C(N)=C(C#N)/C1=C\C=C(/C#N)C(=O)OCC` the T/C (dose: 6.25 mg/kg/injection, schedule: Q01DX001 (ip), vehicle: Klucel (hydroxypropylcellulose) (HPC)) was 89 % of control, the T/C (dose: 12.5 mg/kg/injection, schedule: Q01DX001 (ip), vehicle: Klucel (hydroxypropylcellulose) (HPC)) was 87 % of control and the T/C (dose: 25.0 mg/kg/injection, schedule: Q01DX001 (ip), vehicle: Klucel (hydroxypropylcellulose) (HPC)) was 86 % of control. The T/C (dose: 50.0 mg/kg/injection, schedule: Q01DX001 (ip), vehicle: Klucel (hydroxypropylcellulose) (HPC)) was 88 % of control and the T/C (dose: 100.0 mg/kg/injection, schedule: Q01DX001 (ip), vehicle: Klucel (hydroxypropylcellulose) (HPC)) was 90 % of control.
With `C1=C2OCOC2=CC2Cc3cc4c(cc3/C=C3\CC5=C(C=C3/C=C/12)OCO5)OCO4` (stereo not given) the T/C [4] was 92 % of control, the T/C [14] was 93 % of control and the T/C [15] was 98 % of control.
In the case of `c1cc2c3c(c1)c1cc4c(cc1c[n+]3CC2)OCO4`, the T/C (dose: 25.0 mg/kg/injection, schedule: Q01DX009 (ip), vehicle: other) is reported as 153 % of control and the T/C (dose: 25.0 mg/kg/injection, schedule: Q01DX009 (ip), vehicle: water) is reported as 91 % of control.
In the case of `CC1CCC(C(C)(C)c2ccccc2)C(OC(=O)C2C3CCC=C3C3CC(C)(C)CC32)C1` (stereo not given), the T/C (dose: 21.25 mg/kg/injection, schedule: Q01DX005 (ip), vehicle: saline with Tween-80) is reported as 99 % of control, the T/C (dose: 42.5 mg/kg/injection, schedule: Q01DX005 (ip), vehicle: saline with Tween-80) is reported as 96 % of control and the T/C (dose: 85.0 mg/kg/injection, schedule: Q01DX005 (ip), vehicle: saline with Tween-80) is reported as 100 % of control.
In the case of `c1ccc(C2CC(c3ccc(C4=NN(c5ccccc5)C(c5ccccc5)C4)cc3)=NN2c2ccccc2)cc1` (stereo not given), the T/C [12] is reported as 102 % of control, the T/C [13] is reported as 91 % of control and the T/C [8] is reported as 87 % of control. The T/C [10] was 89 % of control and the T/C [11] was 100 % of control.
In the case of `COc1ccc2c(c1)NC(=O)Cn1nnnc1-2`, the T/C (dose: 25.0 mg/kg/injection, schedule: Q04DX002 (ip), vehicle: saline with Tween-80) is reported as 96 % of control, the T/C (dose: 50.0 mg/kg/injection, schedule: Q04DX002 (ip), vehicle: saline with Tween-80) is reported as 91 % of control and the T/C (dose: 100.0 mg/kg/injection, schedule: Q04DX002 (ip), vehicle: saline with Tween-80) is reported as 96 % of control. For the same molecule, the T/C (dose: 400.0 mg/kg/injection, schedule: Q04DX002 (ip), vehicle: saline with Tween-80) was 93 % of control.
With `C=CCN(C=O)CC(OCC)OCC` the T/C (dose: 25.0 mg/kg/injection, schedule: Q01DX005 (ip), vehicle: saline with Tween-80) was 100 % of control, the T/C [4] was 97 % of control and the T/C [14] was 99 % of control.
With `CCCCC1(O)C(=O)N(c2ccccc2)N(c2ccccc2)C1=O` the T/C (dose: 60.0 mg/kg/injection, schedule: Q01DX005 (ip), vehicle: Klucel (hydroxypropylcellulose) (HPC)) was 102 % of control, the T/C (dose: 120.0 mg/kg/injection, schedule: Q01DX005 (ip), vehicle: Klucel (hydroxypropylcellulose) (HPC)) was 102 % of control and the T/C (dose: 240.0 mg/kg/injection, schedule: Q01DX005 (ip), vehicle: Klucel (hydroxypropylcellulose) (HPC)) was 96 % of control.
`COc1ccc(S(=O)(=O)/C(=C/c2ccccc2[N+](=O)[O-])C(=O)c2ccccc2)cc1` was tested, and the T/C [4] was 111 % of control, the T/C [14] was 103 % of control and the T/C [15] was 104 % of control.
`O=c1oc(-c2ccccc2CCl)nc2ccccc12` was tested, and the T/C [16] was 106 % of control, the T/C [7] was 104 % of control and the T/C [9] was 101 % of control.
In the case of `[S-]c1n[n+](-c2ccccc2)c(-c2ccccc2)s1`, the T/C [16] is reported as 100 % of control, the T/C [7] is reported as 100 % of control and the T/C [9] is reported as 93 % of control.
`CN(C)c1ccc(C=Nc2ccc(OCCCCCCCCCCC(=O)O)cc2)cc1` was tested, and the T/C [16] was 93 % of control, the T/C [7] was 88 % of control and the T/C [9] was 90 % of control.
In the case of `CC(C)(C)OC1COCCO1` (stereo not given), the T/C (dose: 60.0 mg/kg/injection, schedule: Q01DX005 (ip), vehicle: saline with Tween-80) is reported as 102 % of control, the T/C (dose: 120.0 mg/kg/injection, schedule: Q01DX005 (ip), vehicle: saline with Tween-80) is reported as 99 % of control and the T/C (dose: 240.0 mg/kg/injection, schedule: Q01DX005 (ip), vehicle: saline with Tween-80) is reported as 93 % of control.
For `[Se]=P(N1CCOCC1)(N1CCOCC1)N1CCOCC1`, the T/C (dose: 13.75 mg/kg/injection, schedule: Q01DX001 (ip), vehicle: Klucel (hydroxypropylcellulose) (HPC)) was 101 % of control and the T/C (dose: 27.5 mg/kg/injection, schedule: Q01DX001 (ip), vehicle: Klucel (hydroxypropylcellulose) (HPC)) was 104 % of control.
In the case of `Nc1nc(N)c2nc(CNc3ccc(Cl)c(Cl)c3)cnc2n1`, the T/C (dose: 15.0 mg/kg/injection, schedule: Q01DX005 (ip), vehicle: saline with Tween-80) is reported as 98 % of control and the T/C (dose: 30.0 mg/kg/injection, schedule: Q01DX005 (ip), vehicle: saline with Tween-80) is reported as 89 % of control.
For `Clc1ccc2nsnc2c1`, the T/C (dose: 6.25 mg/kg/injection, schedule: Q01DX009 (ip), vehicle: saline with Tween-80) was 101 % of control, the T/C (dose: 12.5 mg/kg/injection, schedule: Q01DX009 (ip), vehicle: saline with Tween-80) was 95 % of control and the T/C (dose: 25.0 mg/kg/injection, schedule: Q01DX009 (ip), vehicle: saline with Tween-80) was 95 % of control. For the same molecule, the T/C [5] was 101 % of control, the T/C [16] was 104 % of control and the T/C [6] was 107 % of control. For the same molecule, the T/C [7] was 104 % of control, the T/C (dose: 200.0 mg/kg/injection, schedule: Q01DX009 (ip), vehicle: Klucel (hydroxypropylcellulose) (HPC)) was 108 % of control and the T/C [9] was 95 % of control.
